pIC50: −log10 of the molar value.
Experiments:
[1] = system: Plasmodium falciparum; assay: Antimalarial activity against chloroquine-sensitive Plasmodium falciparum 3D7 incubated for 72 hrs by SYBR Green 1 assay; type: functional, organism-based; settings: 3D7, 72 h
[2] = system: Plasmodium falciparum; assay: Antimalarial activity against chloroquine-resistant Plasmodium falciparum K1 incubated for 72 hrs by SYBR Green 1 assay; type: functional, organism-based; settings: K1, 72 h
[3] = Cytotoxicity against african green monkey Vero cells after 72 hrs by MTT assay; type: cell-based; settings: chlorocebus sabaeus
[4] = Selectivity index, ratio of CC50 for african green monkey Vero cells to IC50 for chloroquine-sensitive Plasmodium falciparum 3D7; type: functional
[5] = Selectivity index, ratio of CC50 for african green monkey Vero cells to IC50 for chloroquine-resistant Plasmodium falciparum K1; type: functional

| Structure (SMILES) | pIC50 [1] | pIC50 [2] | CC50 at 72 h [3] | Ratio CC50/IC50 [4] | Ratio CC50/IC50 [5] |
| --- | --- | --- | --- | --- | --- |
| CNC1=C([N+](=O)[O-])C(c2ccc(N3CCN(c4ccnc5cc(Cl)ccc45)CC3)cc2)c2ccccc2O1 (stereo not drawn) | 5.95 | 5.47 | > 200 µM | >180.2 | >59.2 |
| CNC1=C([N+](=O)[O-])C(c2ccc(N3CCN(c4ccnc5cc(Cl)ccc45)CC3)cc2)c2cc(Cl)ccc2O1 (stereo not drawn) | 5.86 | 5.52 | 74.5 µM | 54.3 | 24.9 |
| CNC1=C([N+](=O)[O-])C(c2ccc(N3CCN(c4ccnc5cc(Cl)ccc45)CC3)cc2)c2cc(Br)ccc2O1 (stereo not drawn) | 5.73 | 5.76 | 88.6 µM | 47.1 | 50.6 |
| CNC1=C([N+](=O)[O-])C(c2ccc(N3CCN(c4ccnc5cc(Cl)ccc45)CC3)cc2)c2cc([N+](=O)[O-])ccc2O1 (stereo not drawn) | 6.21 | 5.75 | 31.9 µM | 51.4 | 17.9 |
| CNC1=C([N+](=O)[O-])C(c2ccc(N3CCN(c4ccnc5cc(Cl)ccc45)CC3)cc2)c2cc(OC)ccc2O1 (stereo not drawn) | 5.61 | 5.37 | 81.9 µM | 33 | 19.3 |
| CCOc1cccc2c1OC(NC)=C([N+](=O)[O-])C2c1ccc(N2CCN(c3ccnc4cc(Cl)ccc34)CC2)cc1 (stereo not drawn) | 5.53 | 5.53 | 40.4 µM | 13.7 | 13.6 |
| CNC1=C([N+](=O)[O-])C(c2ccc(N3CCN(c4ccnc5cc(Cl)ccc45)CC3)cc2)c2cccc(OC)c2O1 (stereo not drawn) | 5.61 | 5.62 | 21.8 µM | 8.8 | 9.1 |
| CNC1=C([N+](=O)[O-])C(c2ccc(N3CCN(c4ccnc5cc(Cl)ccc45)CC3)cc2)c2cc(Cl)cc(Cl)c2O1 (stereo not drawn) | 5.41 | 5.84 | 97.8 µM | 24.9 | 67.4 |
| CNC1=C([N+](=O)[O-])C(c2ccc(N3CCN(c4ccnc5cc(Cl)ccc45)CC3)cc2)c2cc(Br)cc(Br)c2O1 (stereo not drawn) | < 5.30 | 5.53 | > 200 µM | – | >68.2 |
| CNC1=C([N+](=O)[O-])C(c2ccc(N3CCN(c4ccnc5cc(Cl)ccc45)CC3)cc2)c2c(C=O)c(C)cc(Cl)c2O1 (stereo not drawn) | 5.63 | 6.06 | 84 µM | 35.8 | 96.5 |
| O=[N+]([O-])C1=C(NCc2ccccc2)Oc2ccccc2C1c1ccc(N2CCN(c3ccnc4cc(Cl)ccc34)CC2)cc1 (stereo not drawn) | < 5.30 | < 5.30 | 66.5 µM | <13.3 | <13.3 |
| O=[N+]([O-])C1=C(NCCc2ccccc2)Oc2ccccc2C1c1ccc(N2CCN(c3ccnc4cc(Cl)ccc34)CC2)cc1 (stereo not drawn) | 5.48 | 5.76 | 131 µM | 39.6 | 75.5 |
| CCCCNC1=C([N+](=O)[O-])C(c2ccc(N3CCN(c4ccnc5cc(Cl)ccc45)CC3)cc2)c2ccccc2O1 (stereo not drawn) | 5.51 | 5.45 | 107 µM | 34.6 | 29.9 |
| CNC1=C([N+](=O)[O-])C(c2ccc(N3CCCN(c4ccnc5cc(Cl)ccc45)CC3)cc2)c2ccccc2O1 (stereo not drawn) | < 5.30 | < 5.30 | 91.4 µM | <18.3 | – |
| CNC1=C([N+](=O)[O-])C(c2ccc(N3CCCN(c4ccnc5cc(Cl)ccc45)CC3)cc2)c2cc(Cl)ccc2O1 (stereo not drawn) | 6.54 | 6.30 | 77 µM | 265.4 | 155.2 |
| CNC1=C([N+](=O)[O-])C(c2ccc(N3CCCN(c4ccnc5cc(Cl)ccc45)CC3)cc2)c2cc(Br)ccc2O1 (stereo not drawn) | 5.65 | 5.90 | > 200 µM | >89.3 | >157.5 |
| Clc1ccc2c(N3CCN(c4ccccc4)CC3)ccnc2c1 | 5.57 | 5.60 | 179 µM | 66.3 | 71.7 |
| Clc1ccc2c(N3CCCN(c4ccccc4)CC3)ccnc2c1 | 5.40 | 5.35 | 148 µM | 37.1 | 33.1 |

Source: ChEMBL document CHEMBL3616449, “Synthesis, in vitro and in silico antimalarial activity of 7-chloroquinoline and 4H-chromene conjugates” (Bioorg Med Chem Lett, 2015)
